Experimental findings from patent US11091478B2 (Fochon Pharmaceuticals, Ltd., priority 2017, dated 2021) are described below.

pIC50: −log10 of the molar value.

This experiment concerns DOHH2 cells. In words: Cell proliferation assay (MTS), DOHH2 cells, 120 h. It counts as cell-based. To be noted: Homo sapiens, DOHH-2, 120 h. An excerpt:
Cell Proliferation Assays
MTS testing kit was purchased from Promega. The RPMI-1640, Fetal bovine serum and Penicillin-Streptomycin were purchased from Gibco. Dimethyl sulfoxide (DMSO) was purchased from Sigma.
To investigate whether a compound is able to inhibit the activity of BCL-2 in cells, a mechanism-based assay using DOHH2 (DSMZ No.® ACC 47) and RS4;11 (ATCC® CRL-1873™) cell was developed. In this assay, inhibition of Bcl-2 was detected by the inhibition of DOHH2 cells proliferation. DOHH2 cells were cultured in culture flasks to 40-80% confluence in RPMI-1640 plus 10% fetal bovine serum. Cells were collected and plated onto 96-well plates at desired cell density (5000 cells/well). Plates were incubated overnight at 37° C., with 5% CO2 to adhere. Compounds were added to the plates, and the final compound concentrations were 10000, 3333, 1111, […], 124, 41, 14, 4.6 and 1.5 nM. Plates plated with DOHH2 or RS4;11 cells were placed at 37° C., with 5% CO2 for 120 h (DOHH2) or 72 h (RS4;11) respectively. 20 μl MTS/100 μl medium mixture solution were added to each well and incubate the plates for exactly 2 hours. The reaction was stopped by adding 25 μl 10% SDS per well. Measure absorbance at 490 nm and 650 nm (reference wavelength). IC50 was calculated using GraphPad Prism 5.0.
Select compounds prepared as described above were assayed according to the biological procedures described herein.
`CC1(C)CCC(CN2CCN(c3ccc(C(=O)NS(=O)(=O)c4cc5c(c([N+](=O)[O-])c4)N[C@@H](CCNC(=O)N4CCOCC4)CO5)c(Oc4cnc5[nH]ccc5c4)c3)CC2)=C(c2ccc(Cl)cc2)C1` [Example 2-58, (S)-N-(2-(7-(N-(2-((1H-pyrrolo[2,3-b]pyridin-5-yl)oxy)-4-(4-((4′-chloro-5,5-dimethyl-3,4,5,6-tetrahydro-[1,1′-biphenyl]-2-yl)meth-yl)piperazin-1-yl)benzoyl)sulfamoyl)-5-nitro-3,4-dihydro-2H-benzo[b][1,4]oxazin-3-yl)ethyl)morpholine-4-carboxamide] gave a pIC50 of 6.06. Molecule `CN1CCN(C[C@@H]2COc3cc(S(=O)(=O)NC(=O)c4ccc(N5CCN(CC6=C(c7ccc(Cl)cc7)CC(C)(C)CC6)CC5)cc4Oc4cnc5[nH]ccc5c4)cc([N+](=O)[O-])c3N2)CC1` [Example 2-4, (R)-2-((1H-pyrrolo[2,3-b]pyridin-5-yl)oxy)-4-(4-((4′-chloro-5,5-dimethyl-3,4,5,6-tetra-hydro-[1,1′-biphenyl]-2-yl)methyl)piperazin-1-yl)-N-((3-((4-methylpiperazin-1-yl)meth-yl)-5-nitro-3,4-dihydro-2H-benzo[b][1,4]oxazin-7-yl)sulfonyl)benzamide] had a pIC50 of 6.86. Next, `CC1(C)CCC(CN2CCN(c3ccc(C(=O)NS(=O)(=O)c4cc5c(c([N+](=O)[O-])c4)N[C@@H](CCOC(=O)N4CCOCC4)CO5)c(Oc4cnc5[nH]ccc5c4)c3)CC2)=C(c2ccc(Cl)cc2)C1` [Example 2-135, (S)-2-(7-(N-(2-((1H-pyrrolo[2,3-b]pyridin-5-yl)oxy)-4-(4-((4′-chloro-5,5-dimethyl-3,4,5,6-tetrahydro-[1,1′-biphenyl]-2-yl)methyl)piperazin-1-yl)benzoyl)sulfamoyl)-5-nitro-3,4-dihydro-2H-benzo[b][1,4]oxazin-3-yl) ethyl morpholine-4-carboxylate]: 6.73; `CC1(C)CCC(CN2CCN(c3ccc(C(=O)NS(=O)(=O)c4cc5c(c([N+](=O)[O-])c4)N[C@H](CNS(C)(=O)=O)CO5)c(Oc4cnc5[nH]ccc5c4)c3)CC2)=C(c2ccc(Cl)cc2)C1` [Example 2-136, (R)-2-((1H-pyrrolo[2,3-b]pyridin-5-yl)oxy)-4-(4-((4′-chloro-5,5-dimethyl-3.4.5.6-tetra-hydro-[1,1′-biphenyl]-2-yl)methyl)piperazin-1-yl)-N-((3-(methylsulfonamidomethyl)-5-nitro-3,4-dihydro-2H-benzo[b][1,4]oxa-zin-7-yl)sulfonyl)benzamide]: 6.42; `CC1(C)CCC(CN2CCN(c3ccc(C(=O)NS(=O)(=O)c4cc5c(c([N+](=O)[O-])c4)N[C@@H](c4ccc(Cl)cn4)CO5)c(Oc4cnc5[nH]ccc5c4)c3)CC2)=C(c2ccc(Cl)cc2)C1` [Example 2-198B, (S)-2-((1H-pyrrolo[2,3-b]pyridin-5-yl)oxy)-4-(4-((4′-chloro-5,5-dimethyl-3,4,5,6-tetra-hydro-[1,1′-biphenyl]-2-yl)methyl)piperazin-1-yl)-N-((3-(5-chloropyridin-2-yl)-5-nitro-3,4-dihydro-2H-benzo[b][1,4]oxazin-7-yl)sulfonyl)benzamide]: 6.35. `CCS(=O)(=O)NC[C@@H]1COc2cc(S(=O)(=O)NC(=O)c3ccc(N4CCN(CC5=C(c6ccc(Cl)cc6)CC(C)(C)CC5)CC4)cc3Oc3cnc4[nH]ccc4c3)cc([N+](=O)[O-])c2N1` [Example 2-137, (R)-2-((1H-pyrrolo[2,3-b]pyridin-5-yl)oxy)-4-(4-((4′-chloro-5,5-dimethyl-3,4,5,6-tetra-hydro-[1,1′-biphenyl]-2-yl)methyl)piperazin-1-yl)-N-((3-(ethylsulfonamidomethyl)-5-nitro-3,4-dihydro-2H-benzo[b][1,4]oxazin-7-yl)sulfonyl)benzamide] showed a pIC50 of 6.86. Then `CC1(C)CCC(CN2CCN(c3ccc(C(=O)NS(=O)(=O)c4cc5c(c([N+](=O)[O-])c4)N[C@H](CC4CCC(C)(O)CC4)CO5)c(Oc4cnc5[nH]ccc5c4)c3)CC2)=C(c2ccc(Cl)cc2)C1` (stereo partly drawn) [Example 2-219, (R)-2-((1H-pyrrolo[2,3-b]pyridin-5-yl)oxy)-4-(4-((4′-chloro-5,5-dimethyl-3,4,5,6-tetra-hydro-[1,1′-biphenyl]-2-yl)methyl)piperazin-1-yl)-N-((3-((4-hydroxy-4-methylcyclo-hexyl)methyl)-5-nitro-3,4-dihydro-2H-benzo [b][1,4]oxazin-7-yl)sulfonyl)benzamide], with 6.18. Regarding `CC1(C)CCC(CN2CCN(c3ccc(C(=O)NS(=O)(=O)c4cc([N+](=O)[O-])c5nc(CN6CCOCC6)[nH]c5c4)c(Oc4cnc5[nH]ccc5c4)c3)CC2)=C(c2ccc(Cl)cc2)C1` [Example 1-27, 2-((1H-pyrrolo[2,3-b]pyridin-5-yl)oxy)-4-(4-((4′-chloro-5,5-dimethyl-3,4,5,6-tetrahydro-[1,1′-biphenyl]-2-yl)methyl)piperazin-1-yl)-N-((2-(morpholinomethyl)-4-nitro-1H-benzo[d]imidazol-6-yl)sulfonyl)benzamide], the pIC50 was 7.29. Then `CC1(C)CCC(CN2CCN(c3ccc(C(=O)NS(=O)(=O)c4cc5c(c([N+](=O)[O-])c4)N[C@H](c4ccccc4)CO5)c(Oc4cnc5[nH]ccc5c4)c3)CC2)=C(c2ccc(Cl)cc2)C1` [Example 2-165, (R)-2-((1H-pyrrolo[2,3-b]pyridin-5-yl)oxy)-4-(4-((4′-chloro-5,5-dimethyl-3,4,5,6-tetra-hydro-[1,1′-biphenyl]-2-yl)methyl)piperazin-1-yl)-N-((5-nitro-3-phenyl-3,4-dihydro-2H-benzo[b][1,4]oxazin-7-yl)sulfonyl)benza-mide], with 7.11; and `CC1(C)CCC(CN2CCN(c3ccc(C(=O)NS(=O)(=O)c4cc5c(c([N+](=O)[O-])c4)N[C@H](CCNC(=O)C4CCOCC4)CO5)c(Oc4cnc5[nH]ccc5c4)c3)CC2)=C(c2ccc(Cl)cc2)C1` [Example 2-57, (R)-N-(2-(7-(N-(2-((1H-pyrrolo[2,3-b]pyridin-5-yl)oxy)-4-(4-((4′-chloro-5,5-dimethyl-3,4,5,6-tetrahydro-[1,1′-biphenyl]-2-yl)meth-yl)piperazin-1-yl)benzoyl)sulfamoyl)-5-nitro-3,4-dihydro-2H-benzo[b][1,4]oxazin-3-yl)ethyl)tetrahydro-2H-pyran-4-carboxamide], with 6.41. As to `CC1(C)CCC(CN2CCN(c3ccc(C(=O)NS(=O)(=O)c4cc5c(c([N+](=O)[O-])c4)N[C@@H](Cc4ccccc4Cl)CO5)c(Oc4cnc5[nH]ccc5c4)c3)CC2)=C(c2ccc(Cl)cc2)C1` [Example 2-191, (S)-2-((1H-pyrrolo[2,3-b]pyridin-5-yl)oxy)-4-(4-((4′-chloro-5,5-dimethyl-3,4,5,6-tetra-hydro-[1,1′-biphenyl]-2-yl)methyl)piperazin-1-yl)-N-((3-(2-chlorobenzyl)-5-nitro-3,4-dihydro-2H-benzo[b][1,4]oxazin-7-yl)sulfo-nyl)benzamide], the pIC50 is 6.82. Then `C[C@H]1COCCN1C[C@H]1COc2cc(S(=O)(=O)NC(=O)c3ccc(N4CCN(CC5=C(c6ccc(Cl)cc6)CC(C)(C)CC5)CC4)cc3Oc3cnc4[nH]ccc4c3)cc([N+](=O)[O-])c2N1` [Example 2-85, 2-((1H-pyrrolo[2,3-b]pyridin-5-yl)oxy)-4-(4-((4′-chloro-5,5-dimethyl-3,4,5,6-tetra-hydro-[1,1′-biphenyl]-2-yl)methyl)piperazin-1-yl)-N-(((S)-3-(((S)-3-methylmorpholino)meth-yl)-5-nitro-3,4-dihydro-2H-benzo[b][1,4]oxazin-7-yl)sulfonyl)benzamide], with 6.36.
